Source: patent US4355104A, “Bacteriolytic proteins” (priority 1980, dated 1982)

How the values were obtained:
[1] = test system: Serratia marcescens, Db1108; assay: anti-bacterial specificity, killing time; type: cell-based; details: time required for killing 90% of the bacteria; 3 x 10^6 cells/ml
Description: (§1) The lysis of E. coli is believed to be due to at least two very similar small and basic proteins designated P9A and P9B. The P9 proteins are active against gram negative bacteria such as E. coli K12 strain D21f2, E. coli K12 strain D21, E. coli K12 strain D31, Enterobacter cloacae, β11, Pseudomonas aeruginosa, OT97, and Serratia marcescens, Db1108 but not S. marcescens Db11. The E. coli K12, strain D31 is a penicillin and streptomycin resistant mutant with a defective lipopolysaccharide. S. marcescens Db11 is a streptomycin resistant mutant derived from a parental strain, pathologic for Drosophila. S. marcescens Db1108 is a spontaneous phage resistant mutant of Db11. The bacterial strains are discussed in Boman, H. G., Nilsson-Faye, I., Paul, K. & Rasmuson, T. (1974) Infect. Immun. 10, 136-145; Monner, D. A., Jonsson, S. & Boman, H. G. (1971) J. Bacteriol. 107, 420-432; and Boman, H. G. & Monner, D. A. (1975) J. Bacteriol. 121, 455-464.
(§2) The anti-bacterial specificity of P9 proteins was determined for gram negative bacteria. Killing time shown in Table 4 is the time required for killing 90% of the bacteria. […] It is also clear that the heptose-less mutant E. coli D21f2 and S. marcescens Db1108 both were more sensitive to P9 proteins than their respective parental strains, D21 and Db11.

[2] = test system: Escherichia coli K12, D21f2; assay: anti-bacterial specificity, killing time; type: cell-based; details: time required for killing 90% of the bacteria; 3 x 10^6 cells/ml
Description: as §1, §2

[3] = test system: Pseudomonas aeruginosa, OT97; assay: anti-bacterial specificity, killing time; type: cell-based; details: time required for killing 90% of the bacteria; 4 x 10^6 cells/ml
Description: as §1, §2

[4] = test system: Enterobacter cloacae, β11; assay: anti-bacterial specificity, killing time; type: cell-based; details: time required for killing 90% of the bacteria; 3 x 10^6 cells/ml
Description: as §1, §2

[5] = test system: Serratia marcescens, Db11; assay: anti-bacterial specificity, killing time; type: cell-based; details: time required for killing 90% of the bacteria; 3 x 10^6 cells/ml
Description: as §1, §2

[6] = test system: Escherichia coli K12, D21; assay: anti-bacterial specificity, killing time; type: cell-based; details: time required for killing 90% of the bacteria; 4 x 10^6 cells/ml
Description: as §1, §2

[7] = test system: E. coli D31; assay: simultaneous decrease of absorbance at 570 nm and viable count; type: cell-based, Escherichia coli; details: eight units per ml, 1 min
Experimental: For E. coli D31 the effect of P9 proteins can be observed by simultaneously following the decrease in the absorbance at 570 nm and the viable count of E. coli. Eight units of protein P9 B per ml in 1 min gave a reduction of viable count from 10^8 to <10^5 while the absorbance dropped 14%.

[8] = test system: E. coli; assay: influence of anions on lytic activity of P9 proteins; type: cell-based, Escherichia coli; details: 0.045 M MES-buffer, pH 6.3
Experimental: The lytic activity of the P9 proteins against E. coli at each stage of the process can be determined turbidimetrically and the total weight of protein measured. For this purpose, one unit of lytic activity is defined as the amount of factor giving 50% reduction of the absorbance of […] (50% lysis) compared to a control. […] A small volume, usually 10 μl, of the sample to be tested is added to 1 ml of bacterial suspension in an ice bath. In the control samples, an equal amount of buffer is substituted. The mixture is incubated (30 minutes at 37° C.) and transferred back to the ice bath during which most of the clearing of the E. coli suspension occurs. Results of such a determination, usually measured within 1 h, are tabulated below in Table 1.
The effects of sulfate or phosphate ions are hardly significant. The presence of acetate and formate buffers during the chromatography sequences until their removal by freeze-drying should be taken into account in interpreting the recovery data for protein P9 B in Table 1.

[9] = test system: E. coli; assay: heat stability in boiling water bath, remaining lytic activity; type: physicochemical, Escherichia coli
Description: FIG. 3 is a graph depicting the effect of heat on the lytic activity of lysozyme and P9 proteins. The filled symbols in the figure indicate a pH of 6.4; the open symbols indicate a pH of 3.2. Activity against E. coli is denoted in the figure by triangles; activity against M. Luteus is denoted by squares.
The activity against E. coli (triangles) is compared in FIG. 3 to the activity against M. luteus (squares). The former activity is associated with the P9 proteins and the latter with the lysozyme.

[10] = test system: E. coli, strain D31; assay: turbidimetric lytic activity against E. coli; type: cell-based, Escherichia coli; details: for Specific Lytic Activity: 1 unit = 50% lysis; for specific lytic activity against E. coli compared with immune hemolymph: versus starting material
Description: The lytic activity of the P9 proteins against E. coli at each stage of the process can be determined turbidimetrically and the total weight of protein measured. For this purpose, one unit of lytic activity is defined as the amount of factor giving 50% reduction of the absorbance of […] (50% lysis) compared to a control. Log phase E. coli, strain D31 can be centrifuged and suspended in ice-cold 0.1 M phosphate buffer, pH 6.4, to give a density of 30 units on a Klett-Summerson colorimeter (A570 0.3-0.5). A small volume, usually 10 μl, of the sample to be tested is added to 1 ml of bacterial suspension in an ice bath. In the control samples, an equal amount of buffer is substituted. The mixture is incubated (30 minutes at 37° C.) and transferred back to the ice bath during which most of the clearing of the E. coli suspension occurs. Results of such a determination, usually measured within 1 h, are tabulated below in Table 1.

[11] = added salt: Ammonium formate, ionic strength 0.15 M
[12] = added salt: None, ionic strength 0.15 M with sodium chloride
[13] = added salt: Sodium acetate, ionic strength 0.15 M
[14] = added salt: Sodium phosphate, ionic strength 0.15 M
[15] = added salt: Sodium sulfate, ionic strength 0.15 M
[16] = fraction after Step 1 of chromatography

## N-LYS-TRP-LYS-VAL-(MET)-ILE-(PHE)-LYS-LYS-ILE-(PHE)-GLU-LYS- -GLY-ARG-ASN-ILE-(PHE)-ARG-ASN-(LYS)-GLY- [P9 B]
[1]
  Killing Time: 115 min
[2]
  Killing Time: < 0.25 min
[3]
  Killing Time: 5 min
[4]
  Killing Time: 15 min
[5]
  Killing Time: > 120 min
[6]
  Killing Time: 1 min
[7]
  drop of absorbance at 570 nm: 14%
[7]; reduction from 10^8
  viable count after treatment: < 10^5
[8]; acetate or formate ions, ionic strength 0.15 M with sodium chloride
  increase in activity: four-fold increase
[8]; [11]
  Relative Activity: 4.5
[8]; [12]
  Relative Activity: 1.0
[8]; [13]
  Relative Activity: 4.1
[8]; [14]
  Relative Activity: 1.3
[8]; [15]
  Relative Activity: 1.2
[9]
  heat stability in words: heat stable
[10]; after Step 2 and freeze-drying
  Specific Lytic Activity: 1.9 Units/μg of protein
[10]; [16]
  Specific Lytic Activity: 5.3 Units/μg of protein
[10]
  specific lytic activity against E. coli compared with immune hemolymph: substantially greater

## N-LYS-TRP-LYS-LEU-PHE-LYS-LYS-ILE-GLU-LYS-VAL-GLY-GLN-ASN-ILE-ARG-ASP-GLY- ILE-ILE-LYS-ALA-GLY-PRO-ALA-VAL-ALA-VAL-VAL-GLY-GLN-ALA-THR-C (KWKLFKKIEKVGQNIRDGIIKAGPAVAVVGQAT; printed: LYS-TRP-LYS-LEU-PHE-LYS-LYS-ILE-GLU-LYS-VAL-GLY-GLN-ASN-ILE-ARG-ASP-GLY- ILE-ILE-LYS-ALA-GLY-PRO-ALA-VAL-ALA-VAL-VAL-GLY-GLN-ALA-THR-) [P9 A]
[1]
  Killing Time: 48 min
[2]
  Killing Time: < 0.25 min
[3]
  Killing Time: 10 min
[4]
  Killing Time: 12 min
[5]
  Killing Time: > 120 min
[6]
  Killing Time: 0.60 min
[8]; [11]
  Relative Activity: 1.3
[8]; [12]
  Relative Activity: 1.0
[8]; [13]
  Relative Activity: 0.9
[8]; [14]
  Relative Activity: 0.8
[8]; [15]
  Relative Activity: 0.6
[9]
  heat stability in words: heat stable
[10]; after Step 2 and freeze-drying
  Specific Lytic Activity: 5.6 Units/μg of protein
[10]; [16]
  Specific Lytic Activity: 4.4 Units/μg of protein
[10]
  specific lytic activity against E. coli compared with immune hemolymph: substantially greater
